The record followed here is patent US9487561B2, “Biologically active complex and its preparation” (HAMLET PHARMA AB, priority 2010, dated 2016).

What all share (format): cell-based, human
In experiment [1] the test system is p38, HSP27, ERK1/2 in kidney and lung carcinoma cells. Description: MAPK phosphorylation (phospho-MAPK antibody arrays, Western blot). As to conditions: for effect of ion channel inhibitor on suppression of p-ERK1/2 phosphorylation by HAMLET / effect of ion channel inhibitor on HAMLET-induced p38 phosphorylation: lung carcinoma cells; for effect of ion channel inhibitor on HAMLET-induced p38 phosphorylation: 30 minutes pretreatment, HAMLET 21 and 35 μM, 1 hour; for phosphorylation of p38: Western blot. The text has this:
Equal volumes of lysates were separated by SDS-PAGE on 4-12% Bis-Tris gels (Invitrogen) and blotted onto PVDF membranes. For other Western blots, 200,000 cells were allowed to adhere overnight in a 6-well plate. After HAMLET treatment the cells were washed with PBS and lysed in M-PER lysis buffer (Pierce) containing Complete protease inhibitor cocktail and PhosSTOP phosphatase inhibitor cocktail (both from Roche). The detached cells were collected by centrifugation. The lysates were cleared by centrifugation and protein concentrations were measured using the DC Protein Assay (Bio-Rad Laboratories, Hercules, Calif.). Equal amounts of protein were separated by SDS-PAGE on 4-12% Bis-Tris gels (Invitrogen) and blotted onto PVDF membranes (GE Healthcare). Membranes were saturated with BSA (GAPDH) or nonfat dry milk (phospho-p38, p38, phospho-ERK1/2, ERK1/2) and incubated with anti-p38, anti-phospho-p38, anti-ERK1/2, anti-phospho-(Thr202/Tyr204)-p44/42 (all 1:500-1000, Cell Signaling Technology), anti-ATF6 (1:1000, IMG-273, Imgenex), anti-phospho-eIF2α (Ser51), (1:500, Cell Signaling Technology) or anti-GAPDH (1:3000-5000, Novus Biologicals) antibodies followed by horseradish peroxidase-conjugated anti-rabbit (1:1000, DakoCytomation, Glostrup, Denmark) or anti-mouse (1:40000-50000, Novus Biologicals) antibodies for staining. Bound antibodies were detected with ECL Plus Western Blotting Reagent (GE Healthcare, Little Chalfont, UK) and GelDoc equipment (Bio-Rad Laboratories, Hercules, Calif.). If required, membranes were stripped with Restore Western Blot Stripping Buffer (Pierce, Rockford, Ill.), blocked and reprobed with new antibodies. MAP kinase phosphorylation was analyzed on a Human Phospho-MAPK array (Proteome Profiler Array, R&D Systems) as per the manufacturer's instruction. Band and spot intensities were quantified using ImageJ (Abramoff et al., July 2004, Biophotonics International). Cytokine quantification (IL6, IL8, TNFα) was performed on an […] 1000 immunoassay system (Siemens Diagnostics).
P38 MAPKs are activated by dual phosphorylation on conserved threonine and tyrosine residues by MKK3/6 and when phosphorylated, a wide variety of effector proteins, including MAPKAPK2 kinases, HSP27 chaperones and ATF2 and CHOP transcription factors become active (Cuenda et al., 2007, Biochimica et Biophysica Acta 1773: 1358-1375).
A general note: In western blotting, separated proteins are transferred to a membrane and probed.

The subject of experiment [2] is A549 lung carcinoma cells. The experiment can be described thus: cell death assay (trypan blue exclusion, ATP levels). As to conditions: 24 hours, control cells without inhibitor or pretreated with inhibitor.
The subject of experiment [3] is potassium channels in A549, lung carcinoma cell lines. The experiment can be described thus: FLUXOR potassium (K^+) channel assay, Thallium (Tl^+) indicator. As to conditions: HAMLET 35 μM; for effect of channel blocker on K^+ flux in response to HAMLET: carcinoma cells, 30 minutes pretreatment; for potassium channel activity (fluorescence signal): oleate 175 μM (5× the HAMLET concentration), peptides mixed with oleate and immediately added. As to the method: The FLUXOR™ potassium (K^+) channel assay was performed on the TECAN infinite F200 (Tecan Group, Switzerland), according to the manufacturer's instructions (Invitrogen). Briefly, this involved FLUXOR™ loading buffer (Hank's Balanced Saline Solution, (HBSS) buffered with 20 mM HEPES and pH adjusted to 7.4 with NaOH. POWERLOAD™ concentrate and water-soluble Probenecid were used respectively to enhance the dye solubility and retention, respectively. Media were removed from the cell plates manually, and 80 μL of loading buffer containing the FLUXOR™ dye mix was applied to each well. Once inside the cell, the nonfluorescent AM ester form of the FLUXOR™ dye is cleaved by endogenous esterases into a thallium-sensitive indicator. The dye was loaded for 60 minutes at room temperature and then removed with the supernatant. After washing with dye-free PBS buffer, a final volume of 80 μL assay buffer containing water-soluble probenecid was added. Cells received one of the following channel inhibitors: 3.3 μL per well of 30 mM amiloride, 3.0 μL of 32 mM BaCl2, 1.8 μL of 5.4 mM gadolinium, 3 μL 3.2 mM tetrandrine and 2.3 μL of 2.6 mM ruthenium red, and were then incubated at room temperature (23-25° C.) for 30 minutes to allow equilibration of the test compounds. Prior to injection, stimulation buffer was prepared from the chloride-free buffer and thallium reagents provided in the kit as well as HAMLET, to achieve a final added concentrations of 2 mM free Tl+ and 35 μM HAMLET after 1:5 dilution upon injection of the stimulus buffer onto cells that had been loaded with FLUXOR™ dye.
To distinguish Ca^2+ mobilization from intracellular stores from the influx of extracellular Ca^2+, EGTA was then added to the cell medium. […] K^+ fluxes across tumor cell membranes were subsequently quantified under the same experimental conditions, using the fluorophore FLUXOR™, which fluoresces after thallium has entered cells through K^+ channels.
Potassium channel activity was therefore measured in A549, lung carcinoma cell lines using an indicator, which emits fluorescence signal upon entering the cells via opened potassium channels, Thallium (Tl^+) indicator (FIG. 18).

The subject of experiment [4] is A549 lung carcinoma cells. The experiment can be described thus: global transcriptional response, whole genome arrays (Affymetrix). As to the method:
For the microarray analysis with ion channel inhibitors, 200,000 A549 cells/well were allowed to adhere overnight on a 6-well plate. After 1 hour of HAMLET treatment, the cells were lysed and RNA was extracted using the RNeasy Mini Kit (QIAGEN). The samples were sent to AROS Applied Biotechnology (Århus, Denmark) for analysis. Data was preprocessed using RMA implemented in the free software packages “affy” as provided by R and Bioconductor (<www.r-project.org>). Differentially expressed genes were identified using empirically Bayes adjusted t-statistics and characterized using the Functional Annotation Clustering Tool in the Database for Annotation, Visualization and Integrated Discovery (DAVID), (Dennis et al., 2003 Genome Biology 4(5): P3) and Ingenuity Pathway Analysis (Ingenuity Systems). All microarray data were registered into NCBI's Gene Expression Omnibus (GEO) database (<www.ncbi.nlm.nih.gov/projects/geo>) with accession numbers GSE23772.
To understand the mechanisms of carcinoma cell death and the contribution of ion channel activation, the global transcriptional response to HAMLET was examined, using whole genome arrays. A549 lung carcinoma cells were exposed to HAMLET (21 μM) for one hour and cells pretreated with amiloride were compared to cells in medium alone. […] An unbiased global overview of transcription was obtained by performing a hierarchical clustering of the top 3000 genes by variance and was visualized in a heatmap (FIG. 2D and FIG. 13). Genes with empirical Bayes adjusted p-values <0.05 and log 2 fold changes >1 were considered differentially expressed and were functionally characterized using Database for Annotation, Visualization and Integrated Discovery, (Dennis et al., supra, 2003) and Ingenuity Pathway Analysis.
In total 12 RNA samples were generated (triplicate of control, oleic Acid, HAMLET, and oleate-treated) and hybridized to Affymetrix Whole Genome microarrays U219. […] For statistical analysis normalized data were linear model fitted and Empirical Bayesian analysis, coupled with p-value adjustment, performed.

[5] abbreviates: Example 5, Affymetrix U219, adjusted p-value <0.05 and log 2-foldchange of 1.

“Also recorded” adds a separate entry of the source.

For the molecule `[Ba+2].[Cl-].[Cl-]` [BaCl2, barium chloride], in experiment [1], the “effect of ion channel inhibitor on suppression of p-ERK1/2 phosphorylation by HAMLET” value is reported as “reversed” and the “effect of ion channel inhibitor on HAMLET-induced p38 phosphorylation” value is given as “inhibited”. Further, in experiment [2], the “cells died after HAMLET” value came out at 13%. The “effect of channel blocker on K^+ flux in response to HAMLET” value in experiment [3] was “intermediate inhibition”.
As to `NC(N)=NC(=O)c1nc(Cl)c(N)nc1N` [amiloride, 3,5-diamino-6-chloro-N-(diaminomethylene)pyrazine-2-carboxamide], in experiment [1], the “effect of ion channel inhibitor on suppression of p-ERK1/2 phosphorylation by HAMLET” value was “reversed” and the “effect of ion channel inhibitor on HAMLET-induced p38 phosphorylation” value is “inhibited”. Also, in experiment [4], the “effect of inhibitor alone on transcription” value is recorded as “no significant effect on transcription”. Moreover, in experiment [4] (HAMLET 21 μM, one hour), the “number of differentially expressed genes in response to HAMLET in cells pretreated with inhibitor” value worked out at 52 genes. Moreover, the “cells died after HAMLET” value in experiment [2] was found to be 8%. In addition, the “effect of channel blocker on K^+ flux in response to HAMLET” value in experiment [3] is recorded as “intermediate inhibition”.
On to `CCCCCCCC/C=C\CCCCCCCC(=O)[O-].[Na+]` [oleate, sodium oleate], for which the “phosphorylation of p38” value in experiment [1] is given as “phosphorylation of p38”. Besides, in experiment [4] (setting [5]), the “number of differentially expressed genes” value is reported as 426 genes. Moreover, the “global transcriptional response (heatmap, top 3000 genes by variance)” value in experiment [4] (FIG. 7B) is “very similar transcriptional response”. Besides, in experiment [3], the “potassium channel activity (fluorescence signal)” value is given as “potassium channels were activated by oleate alone, but at lower efficiency than HAMLET”.

B1: HAMLET (protein, UniProt P00709 20-142, looked up)
Alpha-lactalbumin: KQFTKCELSQLLKDIDGYGGIALPELICTMFHTSGYDTQAIVENNESTEYGLFQISNKLWCKSSQVPQSRNICDISCDKFLDDDITDDIMCAKKILDIKGIDYWLAHKALCTEKLEQWLCEKL
modifications: oleic acid complex
On to B1, for which the ERK1/2 phosphorylation entry in experiment [1] (30 minutes) was “loss of ERK1/2 phosphorylation”. The “p38α and HSP27 phosphorylation” value in experiment [1] (30 minutes, phospho-MAPK antibody arrays) is “phosphorylating p38α and HSP27”. The “phosphorylation of p38” value in experiment [1] is “dose- and time-dependent”. The “number of differentially expressed genes” value in experiment [4] (setting [5]) stood at 336 genes; in experiment [4] (HAMLET 21 μM, one hour, no inhibitor, adjusted p-values <0.05, log 2 fold changes >1), 336 genes. Further, the “cells died after HAMLET” value in experiment [2] was found to be 44%. Moreover, in experiment [3], the “potassium channel activity (fluorescence signal)” value was “rapidly opened the K^+ channels; also recorded: triggers a rapid potassium flux”.
